Assay results published in a melting point compilation (Tetko et al.; mined from patent text by program, amines drawn as free bases though some values may be those of a salt).

SMILES	melting point [°C]
NNC(=O)c1cccc(-c2csc(N=C(N)N)n2)n1	233 to 234
COc1cccc(-c2cc(-c3ccc(-c4c(Cc5ccccc5)sc5ccccc45)cc3)cc(Br)c2OCC(=O)O)c1	88 to 90
CC(C)(C)C(=O)Nc1nc(O)c2cc(C#Cc3ccc(C(=O)O)cc3)cnc2n1	> 250
CC(C)n1cnc2c(NCc3cccnc3)nc(F)nc21	131 to 133
CCc1cccc(CC)c1NC(=O)NC(c1ccccc1)c1ccccc1	238 to 240
COC=C(C#C[Si](C)(C)C)C(=O)OC	70 to 72
CC(=O)NCC1CN(c2ccc(N3CCN(c4ncc([N+](=O)[O-])s4)CC3)c(F)c2)C(=O)O1 (configuration not stated)	202 to 203
O=C1NCCN1c1ccc(S(=O)(=O)Nc2ccc3c(c2)OCO3)cc1	219 to 220
CN(C)CC1CNc2cc(Cl)ccc2C1 (configuration not stated)	107 to 110
CC(OC1CCCCO1)C1CCC2C3CC=C4CC(O)CC(O)C4(C)C3CCC12C (configuration not stated)	122 to 124
O=C(COc1ccc(Cl)cc1)CS(=O)(=O)C(c1ccc(Cl)cc1)c1ccc(Cl)cc1	105 to 107
C[Si](C)(C)OC(Cn1ccnc1)(Cn1cncn1)c1ccc(F)cc1F (configuration not stated)	87 to 89
CCC(CC)N(OCc1ccccc1)C(=O)Nc1ccccc1	45 to 45.6
CC(=O)c1ccc2c(c1)C(C(Cl)(Cl)Cl)OC(C(Cl)(Cl)Cl)O2 (configuration not stated)	104 to 105
CCOC(=O)COc1cc(OC)c2c(c1S(N)(=O)=O)OC1(CCCCC1)CC2=O	188 to 190
O=C(NC1CN2CCC1CC2)c1cccc2nc(-c3ccc(F)cc3)oc12 (configuration not stated)	185 to 187
Cc1ccc(C(=O)N(C)C2CCCCC2)cc1	70 to 71
OC(c1cccc(F)c1)(c1cccc(F)c1)C1CCNCC1	117 to 118
Clc1ccc(C2CCc3cc(Cl)ccc3O2)cc1 (configuration not stated)	99 to 100
CC(C)(C)C1=CC(c2cccc([N+](=O)[O-])c2)C2=C(CCCC2=O)N1 (configuration not stated)	180 to 182
CCn1c(=O)c2c(nc(/C=C/c3ccc(OCOC)c(OC)c3)n2C)n(CC)c1=O	179 to 181
Cc1cc(C)c2c(n1)CC(c1ccccc1C)CC2=O (configuration not stated)	106 to 107
c1ccc2c(-c3cnc(CCC4CCCCN4)s3)c[nH]c2c1 (configuration not stated)	155 to 157
CN(C)C1CCC(c2cc3ccccc3c(=O)[nH]2)CC1 (configuration not stated)	256 to 258

SMILES	melting point [°C]
COc1ccc2cc(Nc3ccc(O)cc3)ccc2c1	153 to 154
N#Cc1cnc2cc3c(cc2c1Nc1cccc(Br)c1)OCO3	201 to 205
Cc1cn2c(n1)Cc1ccccc1NC2=O	234 to 236
CCCCOS(C)(=O)=O	100 to 101
COc1ccc(O)c2[nH]c(C)c(C)c12	159
Cc1cccc(C)c1OCC(=O)NC(Cc1ccccc1)C(O)CC(N)Cc1ccccc1 (configuration not stated)	131
Cc1ccc2c(c1)N(CC(=O)NC(C)(C)C)C(=O)C(Br)CC2c1ccccc1C (configuration not stated)	219 to 221
OCCn1cc(-c2ccc3ncn(Cc4ccc5ncccc5c4)c3n2)cn1	160 to 163
N#Cc1ccc(N2CCCCC2)c2ccsc12	99 to 100
FC(F)c1nc2ccccc2n1-c1nc(Nc2ccncn2)nc(N2CCOCC2)n1	233 to 235
CC(CC(=O)Nc1c(Cl)ccc2nc(N3CCC(N)C3)ccc12)c1ccccc1 (configuration not stated)	204 to 207
CC(=O)Nc1cccc(C(C)=O)c1C(=O)O	131
CCOCc1nc2c(N)nc3cc(-c4cccnc4)ccc3c2n1CC1CCCCN1S(C)(=O)=O (configuration not stated)	152 to 154
Nc1ccc(CCC(=O)Nc2ccc(C(=O)c3ccccc3)cc2)cc1[N+](=O)[O-]	72 to 73
COc1cc2ncnc(Nc3cccc(Br)c3)c2cc1OC(C)=O	238
Cc1cc(Cc2ccc(Cl)cc2)n(O)c(=O)c1	142
CNC(=O)c1c(Cl)ccc(Cl)c1OC	172 to 175
CCc1noc(-c2cc3c(cn2)[nH]c2cccc(Oc4ccc(Cl)cn4)c23)n1	259 to 260
COc1cc(Nc2nc3cccc(-c4ccc(S(=O)(=O)N(C)C)cc4)c3o2)cc(OC)c1OC	230 to 233
COCOc1c(N=Nc2ccc(OC)cc2)cc(OC)cc1C(C)(C)C	102 to 103
Cc1oc(-c2cccs2)nc1COc1ccc(CON=C(CCCCCCC(=O)O)c2ccccc2)cc1	106 to 108
CNC(=O)[C@@H](N[C@@H](C)c1ccccc1)C(C)(C)C	107 to 108
O=C(O)[C@@H](CCCN1C(=O)c2ccccc2C1=O)NS(=O)(=O)c1ccc(Oc2ccccc2)cc1	139 to 140
COc1cc([N+](=O)[O-])c(N)cc1C(N)=O	250 to 257

SMILES	melting point [°C]
Cc1cccc(-c2n[nH]cc2-c2ccc(F)c(-c3cc[nH]n3)c2)n1	105 to 108
Cc1nc(=O)[nH]c2c(-c3ccccc3)[nH]c(C)c12	290 to 294
CC(=O)Nc1cccnc1Cl	81 to 83
Cc1cc(Cl)ccc1-c1nc(=O)c2ccccc2s1	134
CCOc1cc2ncc3c(N)nc(-c4cccnc4)cc3c2cc1OCC	241 to 245
O=C(O)CCCn1ccnc1	125 to 126
Cc1cc(Cl)cc(NC(=O)C=NO)c1	206 to 207
CCOC(=O)c1ccn2ncc(-c3cccc(Cl)c3)c2n1	126 to 129
N=C1NC(=O)C(c2ccccc2)S1 (configuration not stated)	249 to 252
CCCn1cc(NC(=O)C(N)c2ccc3c(c2)C(C)(C)CCC3(C)C)cc1C(=O)OC (configuration not stated)	152 to 153
CCN(CC)Cc1nn2cc(-c3ccccc3)nc2s1	138
CCCc1c(OCCCCCC(=O)NCCCCCCc2cccnc2)ccc(C(C)=O)c1O	56 to 58
COc1cc2c(c(OC)c1OC)-c1ccc(NC(=O)C(C)NC(=O)OCc3ccccc3)cc1C(NC(C)=O)CC2 (configuration not stated)	140 to 141
CCCCOc1cc(CCC(=O)O)ccc1CCCc1ccc(OS(=O)(=O)CC)c(OC)c1	64
Cc1nc2cnc3ccccc3c2s1	95.5 to 97.5
Cn1c(-c2ccc(-n3ccnc3)cc2)cnc1[C@H](Cc1ccccn1)N(C=O)c1cc2cccnc2o1	108 to 110
COc1cc(OC)cc(C(=O)N2CCc3cc(O)ccc3C2=O)c1	178 to 179
CCCC(=O)c1cnc2c(C)cccc2c1Nc1ccccc1CC	117 to 119
CCN(CC)C(=O)c1ccc2ccccc2c1-c1ccc(F)cc1	103 to 104
CC(C)(C)NCC(O)C(Cl)(Cl)Cl (configuration not stated)	48 to 50
COc1cc2c(c(OC)c1OC)OCC2=O	81 to 83
CCN(CC)Cc1nc(-c2ccc(OC)c(OC)c2)c2cc(OC)c(OC)cc2n1	111 to 113

The remaining lines, values ahead:

melting point [°C]	SMILES
237 to 240	CCOC=C(C(=O)OCC)C(=O)c1ccc(I)cc1Cl
244 to 246	Nc1ccc(S(=O)(=O)c2cc(-c3ccc4ccccc4c3)nc(N3CCCC3)c2)cc1
110 to 115	CNc1c(C)cc(C(C)(C)c2ccc(C(C)(C)c3cc(C)c(NC)c(C)c3)cc2)cc1C
304 to 307	C=C1SC(=O)N(c2ccc3cc(-c4cc5c(c(-c6ccncc6)c4)OCO5)ccc3c2)C1=O
128 to 132	COC(=O)N1C[C@@H]2CN(c3ccc(N4C[C@H](CNC(C)=O)OC4=O)cc3F)C[C@@H]2C1
179	Cc1ccnc(NC(=O)C2CC2)c1[N+](=O)[O-]
222 to 225	CC(=O)CCCCC(=O)Nc1ccc(C=CC(=O)O)cc1
109 to 110	O=C(O)c1ccc(OCc2ccc(F)cc2)cc1
299 to 301	NC(=O)c1nc(-c2cccc(O)c2)nc2c1[nH]c(=O)n2[C@H]1CC[C@H](N)CC1
68	CCSC(=O)N(C=C(C#N)C#N)c1cccc(Cl)c1
211	Cc1c(C(=O)O)nn(-c2ccc(Cl)cc2Cl)c1-c1ccc(Cl)cc1
153 to 154	O=C(NC(Cc1ccccc1)c1ccccn1)c1ccccc1 (configuration not stated)
87 to 89	CN(CCO)Cc1cc(C(=O)c2ccccc2F)cc(C(C)(C)C)c1O
154 to 155	C[C@@H]1CN(CC(=O)Nc2ccccc2C(F)(F)F)C[C@H](C)N1c1ncnc2sccc12
54	CCCCCC1C=CC(c2ccc(C(F)(F)F)cc2)=CC1 (configuration not stated)
176 to 177	COP(=O)(Cc1ccc(NC(=O)/C=C/c2cnn(C)c2-c2ccoc2)cc1)OC

melting point [°C]	SMILES
56 to 57	O=C(C(=O)c1cccnc1)c1ccccc1
220 to 222	O=c1[nH]c(NCCc2c[nH]cn2)nc2c1ncn2C1CC(O)C(CO)O1 (configuration not stated)
318 to 332	CN(C)S(=O)(=O)c1cc2[nH]c(=O)c(=O)[nH]c2cc1[N+](=O)[O-]
159 to 162	CCCCC(CC)C(=O)Nc1ccc2ccn(Cc3ccc(C(=O)OC(=O)N(c4ccccc4)c4ccccc4)cc3OC)c2c1 (configuration not stated)
84.5 to 85	CCc1cccc(C)c1N1C(=O)C=CC1=O
152 to 153	COc1cc([N+](=O)[O-])c(NC(C)=O)cc1Cl
44 to 45	CCOC(=O)c1ccc(C(F)(F)F)cc1SC
126 to 127	CCOC(=O)Cc1cnc(-c2cc3cccc(N(C)S(=O)(=O)c4cccs4)c3[nH]2)s1
254 to 264	Cn1ncnc1-n1cc(C(=O)O)c(=O)c2cc(F)c(F)cc21
126 to 131	CCOc1cc(N(CC)CC)ccc1C1(N(c2ccccc2)c2ccc(NC(C)=O)cc2)OC(=O)c2ccccc21 (configuration not stated)
153 to 155	CC(C(=O)Nc1ccc2c(c1)CC(=O)N2)N1CCC(Cc2ccccc2)CC1 (configuration not stated)
151 to 153	COc1ccc(C(=O)N2CCN(CC(=O)N3CC=C(c4cccc(C(F)(F)F)c4)n4ncc(C#N)c43)CC2)cc1
65 to 72	CCCCCCCCCCCCCCCc1cccc(OC)c1C(=O)O
103 to 116	CCCCNC(=O)OCC(=NNC(N)=S)c1ccccc1
172	Cc1ccc(C(C#N)C=Cc2ccc(O)c(O)c2)cc1 (configuration not stated)
161	Cc1cc(C)cc(NCc2ccc3nc(NCCCN4CCCCC4)n(Cc4nc(C)ccc4O)c3c2)c1
